This is an account of results in ChEMBL document CHEMBL6153109, “Switching Roles─Exploring Concentration-Dependent Agonistic versus Antagonistic Behavior of Integrin Ligands” (J Med Chem, 2025).

Data set [1] concerns the target T1, Integrin alpha-V/beta-3 (Homo sapiens, UniProt P05106+P06756). Briefly: Agonist activity at integrin alphaVbeta3 in human M21 cells assessed as increase in p-ERK1/2 expression at 1 uM incubated for 24 hrs by Western blot analysis. The class given is cell-based. The note with it: filed as agonist.
In data set [2] the target is T2, Integrin alpha-5/beta-1 (Homo sapiens, UniProt P05556+P08648). Put plainly: Agonist activity at integrin alpha5beta1 in human OV-MZ-6 cells assessed as increase in p-FAK expression at 1 uM incubated for 24 hrs by Western blot analysis. The class given is cell-based. For orientation: Immunoblotting shows a protein as a band on a membrane.
Data set [3] deals with T2, Integrin alpha-5/beta-1. Put plainly: Agonist activity at integrin alpha5beta1 in human OV-MZ-6 cells assessed as increase in p-ERK1/2 expression at 1 uM incubated for 24 hrs by Western blot analysis. The class given is cell-based.
The target in data set [4] is T1, Integrin alpha-V/beta-3. Briefly: Agonist activity at integrin alphaVbeta3 in human M21 cells assessed as increase in FAK expression at 1 nM incubated for 5 to 60 mins by Western blot analysis. The class given is cell-based. The note with it: time 5-60 min.
For data set [5], the target named is T3, Integrin alpha-V/beta-6 (Homo sapiens, UniProt P06756+P18564). Briefly: Agonist activity at integrin alphaVbeta6 in human HN cells assessed as fold increase in p-FAK expression at 1 nM measured within 30 mins by Western blot analysis (reference value: 1). The class given is cell-based. The conditions noted are these: filed as agonist.
The target of data set [6] is T3, Integrin alpha-V/beta-6. Briefly: Agonist activity at integrin alphaVbeta6 in human HN cells assessed as fold increase in p-FAK expression at 1 uM measured within 30 mins by Western blot analysis (reference value: 1). The class given is cell-based. The conditions noted are these: filed as agonist.
The target of data set [7] is T2, Integrin alpha-5/beta-1. Briefly: Agonist activity at integrin alpha5beta1 in human OV-MZ-6 cells assessed as fold increase in FAK expression at 1 nM measured after 5 mins by Western blot analysis (reference value: 1). It is filed as cell-based. The conditions noted are these: filed as agonist.
Data set [8] concerns the target T2, Integrin alpha-5/beta-1. Put plainly: Agonist activity at integrin alpha5beta1 in human OV-MZ-6 cells assessed as increase in FAK expression at 1 nM measured after 30 to 60 mins by Western blot analysis. It is filed as cell-based. The conditions noted are these: time 30-60 min.
Data set [9] addresses T2, Integrin alpha-5/beta-1. Briefly: Agonist activity at integrin alpha5beta1 in human OV-MZ-6 cells assessed as increase in FAK expression at 1 uM measured after 5 to 60 mins by Western blot analysis. The class given is cell-based. The conditions noted are these: time 5-60 min.
The target of data set [10] is T1, Integrin alpha-V/beta-3. Briefly: Agonist activity at integrin alphaVbeta3 in human M21 cells assessed as increase in p-FAK expression at 1 nM incubated for 5 to 60 mins by Western blot analysis. It is filed as cell-based. The conditions noted are these: time 5-60 min.
The subject of data set [11] is OV-MZ-6. Put plainly: Inhibition of cell migration in human OV-MZ-6 cells expressing integrin alpha5beta1 assessed as delay in wound gap closure at 1 uM measured within 24 hrs by wound scratch assay. The class given is functional, cell-based.
The test system of data set [12] is OV-MZ-6. Briefly: Inhibition of cell migration in human OV-MZ-6 cells expressing integrin alpha5beta1 assessed as delay in wound gap closure at 1 uM measured within 72 hrs by wound scratch assay. It is filed as functional, cell-based.
The subject of another data set is M21. Put plainly: Inhibition of cell migration in human M21 cells expressing integrin alphaVbeta3 assessed as delay in wound gap closure at 1 to 1000 nM measured after 9 to 72 hrs by wound scratch assay. The conditions noted are these: dose 1-1000 nM, time 9-72 hrs. It is filed as functional, cell-based.
Data set [13] relates to OV-MZ-6. Briefly: Inhibition of cell migration in human OV-MZ-6 cells expressing integrin alpha5beta1 assessed as delay in wound gap closure at 1 nM measured after 9 to 72 hrs by wound scratch assay. It is filed as functional, cell-based. The conditions noted are these: time 9-72 hrs.
Data set [14] deals with OV-MZ-6. Put plainly: Inhibition of cell adhesion in human OV-MZ-6 cells expressing integrin alpha5beta1 at 1 uM measured after 48 hrs by microscopic imaging analysis. The class given is functional, cell-based.
Data set [15] deals with OV-MZ-6. Put plainly: Inhibition of cell adhesion in human OV-MZ-6 cells expressing integrin alpha5beta1 at 1 nM measured after 48 hrs by microscopic imaging analysis. The class given is functional, cell-based.
Data set [16] can be described thus: Drug uptake in human HN cells overexpressing integrin alphaVbeta6 at 1 uM measured within 3 mins by Hoechst 33342 staining based fluorescence analysis. The class given is ADME, cell-based. The note with it: 0.05 h.
Data set [17] in a line: Drug uptake in human HN cells overexpressing integrin alphaVbeta6 at 1 uM measured at 60 to 300 mins by Hoechst 33342 staining based fluorescence analysis. It is filed as ADME, cell-based. The conditions noted are these: time 60-300 min.
Data set [18] can be described thus: Drug uptake in human OV-MZ-6 cells overexpressing integrin […] at 1 uM measured after 300 mins by Hoechst 33342 staining based fluorescence analysis. The class given is ADME, cell-based. The note with it: ov-mz-6, 5 h.
For data set [19], the target named is T1, Integrin alpha-V/beta-3. Briefly: Competitive binding affinity to human Integrin alphaVbeta3 incubated for 1 hrs in presence of vitronectin by ELISA based spectrophotometric analysis. The class given is protein-complex assay. A general note: An ELISA detects its analyte on a solid surface through an enzyme-linked reagent.
In data set [20] the target is T2, Integrin alpha-5/beta-1. Put plainly: Competitive binding affinity to human Integrin alpha5beta1 incubated for 1 hrs in presence of fibronectin by ELISA based spectrophotometric analysis. It is filed as protein-complex assay.
Data set [21] deals with T3, Integrin alpha-V/beta-6. Briefly: Competitive binding affinity to human Integrin alphaVbeta6 incubated for 1 hrs in presence of […] of TGF-beta1 by ELISA based spectrophotometric analysis. It is filed as protein-complex assay.

The source made the active and inactive calls. The rule behind the calls is not given here. Where only a bound is given, the exact number is not on record here.

Consider `C#CCCC(=O)NCCCOc1cc(C)c(C(=O)N[C@@H](CNC(=O)CNC(=O)c2cccc(NC(=N)N)c2)C(=O)O)c(C)c1`, for which, at Integrin alpha-V/beta-3 [1], the outcome was Active. Moreover, the outcome at Integrin alpha-5/beta-1 [2], on Integrin alpha-5/beta-1 [3], on Integrin alpha-V/beta-3 [4], at Integrin alpha-5/beta-1 [8] and at Integrin alpha-5/beta-1 [9] was inactive. Moreover, the fold change (FC) was 4 at Integrin alpha-V/beta-6 [5], 3 on Integrin alpha-V/beta-6 [6] and 1.6 on Integrin alpha-5/beta-1 [7]. The Activity entry on Integrin alpha-V/beta-3 [10] was “Not active; Slight Increase Compared To Control Observed”. Besides, the inhibition result with OV-MZ-6 [11] and with OV-MZ-6 [14] was “Active” throughout. Moreover, the inhibition result with OV-MZ-6 [12], in the data set on M21, in the data set on OV-MZ-6 [13] and in the data set on OV-MZ-6 [15] was “inactive” throughout.
On to `CC(C)C[C@@H]1NC(=O)[C@H](CC(=O)O)NC(=O)CNC(=O)[C@H](CCCNC(=N)N)NC(=O)[C@H](Cc2ccccc2)NC(=O)[C@H](CCCCNC(=O)CCCCCNC(=O)CCCCC[N+]2=C(/C=C/C=C/C=C3/N(C)c4ccc5ccccc5c4C3(C)C)C(C)(C)c3c2ccc2ccccc32)N(C)C(=O)[C@H]2CCCN2C(=O)[C@H](Cc2ccccc2)NC(=O)[C@H](C)NC1=O`, for which the Drug uptake result in [16] is reported as “Active”; in [17], “Active”; in data set [18], “Not_active”.
With `CC(C)C[C@H](NC(=O)[C@H](CO)NC(=O)[C@H](CC(=O)O)NC(=O)[C@H](CC(C)C)NC(=O)[C@H](CC(=O)O)NC(=O)[C@@H](NC(=O)[C@@H](N)CCCNC(=N)N)[C@@H](C)O)C(=O)N[C@@H](CCCNC(=N)N)C(=O)N[C@H](C(=O)O)[C@@H](C)O`, the half-maximal inhibitory concentration (IC50) was above 1000 nM on Integrin alpha-V/beta-3 [19], above 1000 nM on Integrin alpha-5/beta-1 [20] and 29.5 nM on Integrin alpha-V/beta-6 [21].

What is called IC50 is the concentration needed to halve the response being measured.
